The values below are quoted from earlier work in patent US20190256487A1, “HYDROXYN[…]” (BioPharmaWorks, LLC, priority 2016, published 2019).

Molecules are shown by their SMILES.

For series [1] the following is noted: mice.
The conditions of series [2]: mice. The source holds these as a separate data set.

Regarding `N[C@@]1(c2ccccc2Cl)CCC[C@@H](O)C1=O` [(2R,6R)-HNK, (2R,6R)-hydroxynorketamine], in series [1], the antidepressant actions entry was “rapid and sustained antidepressant actions”. Further, the ketamine-related side effects result in series [2] was “lacks ketamine-related side effects”.
